Laboratory results as given in ChEMBL document CHEMBL1156263, “Single agents with designed combination chemotherapy potential: synthesis and evaluation of substituted pyrimido[4,5-b]indoles as receptor tyrosine kinase and thymidylate synthase inhibitors and as antitumor agents” (J Med Chem, 2010).
pIC50: −log10 of the molar value. Activity calls are given as the source filed them. The calls are words filed in the database; no cut-off is given here.

Key:
[1] = biological target: T1, Mitogen-activated protein kinase; ERK1/ERK2 (Homo sapiens) (UniProt P27361+P28482); test: Reduction of ERK1/2 activation in human MDA-MB-435 cells at 20 uM after 1 hr by Western blot analysis; assay type: cell-based
T1 sequence (P27361 whole entry, looked up): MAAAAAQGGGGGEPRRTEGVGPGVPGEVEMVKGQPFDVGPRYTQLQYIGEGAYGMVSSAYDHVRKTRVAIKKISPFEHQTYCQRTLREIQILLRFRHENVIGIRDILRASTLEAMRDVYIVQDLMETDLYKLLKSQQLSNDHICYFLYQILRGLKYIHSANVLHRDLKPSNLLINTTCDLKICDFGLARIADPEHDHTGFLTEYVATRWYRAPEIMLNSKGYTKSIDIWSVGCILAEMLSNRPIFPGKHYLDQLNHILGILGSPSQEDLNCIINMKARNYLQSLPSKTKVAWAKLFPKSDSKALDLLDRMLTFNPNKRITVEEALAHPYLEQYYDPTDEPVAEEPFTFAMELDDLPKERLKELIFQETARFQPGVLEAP
T1 sequence (P28482 whole entry, looked up): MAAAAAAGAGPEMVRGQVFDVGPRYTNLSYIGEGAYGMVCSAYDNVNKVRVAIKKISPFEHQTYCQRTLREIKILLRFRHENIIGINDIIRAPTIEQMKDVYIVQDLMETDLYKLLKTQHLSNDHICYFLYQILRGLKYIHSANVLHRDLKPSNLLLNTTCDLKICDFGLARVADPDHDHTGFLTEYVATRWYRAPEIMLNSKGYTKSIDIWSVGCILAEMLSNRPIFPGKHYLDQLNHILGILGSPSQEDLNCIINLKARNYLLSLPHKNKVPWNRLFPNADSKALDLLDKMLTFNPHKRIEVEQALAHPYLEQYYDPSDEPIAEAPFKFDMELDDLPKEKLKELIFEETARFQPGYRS

[2] = biological target: T1, Mitogen-activated protein kinase; ERK1/ERK2 (Homo sapiens); test: Reduction of ERK1/2 activation in human MDA-MB-435 cells at 20 uM after 4 hrs by Western blot analysis; assay type: cell-based
[3] = biological target: T2, Dihydrofolate reductase (Homo sapiens) (UniProt P00374); test: Inhibition of human DHFR at IC50
T2 sequence (whole entry): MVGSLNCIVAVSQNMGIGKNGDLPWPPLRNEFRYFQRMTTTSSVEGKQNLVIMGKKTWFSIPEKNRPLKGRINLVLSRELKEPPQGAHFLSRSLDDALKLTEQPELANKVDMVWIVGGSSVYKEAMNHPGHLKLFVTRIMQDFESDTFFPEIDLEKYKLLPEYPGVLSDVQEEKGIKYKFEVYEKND

[4] = biological target: T3, Dihydrofolate reductase (Escherichia coli) (UniProt P0ABQ4); test: Inhibition of Escherichia coli DHFR at IC50
T3 sequence (whole entry): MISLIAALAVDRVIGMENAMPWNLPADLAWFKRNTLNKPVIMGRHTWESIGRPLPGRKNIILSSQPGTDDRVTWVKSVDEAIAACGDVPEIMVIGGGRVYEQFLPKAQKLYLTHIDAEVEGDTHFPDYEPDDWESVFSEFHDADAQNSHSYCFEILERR

[5] = biological target: T4, Receptor-type tyrosine-protein kinase FLT3 (Homo sapiens, UniProt P36888); test: Inhibition of Flt3 activity in human […] cells by phosphotyrosine cell-based ELISA
T4 sequence (P36888 whole entry): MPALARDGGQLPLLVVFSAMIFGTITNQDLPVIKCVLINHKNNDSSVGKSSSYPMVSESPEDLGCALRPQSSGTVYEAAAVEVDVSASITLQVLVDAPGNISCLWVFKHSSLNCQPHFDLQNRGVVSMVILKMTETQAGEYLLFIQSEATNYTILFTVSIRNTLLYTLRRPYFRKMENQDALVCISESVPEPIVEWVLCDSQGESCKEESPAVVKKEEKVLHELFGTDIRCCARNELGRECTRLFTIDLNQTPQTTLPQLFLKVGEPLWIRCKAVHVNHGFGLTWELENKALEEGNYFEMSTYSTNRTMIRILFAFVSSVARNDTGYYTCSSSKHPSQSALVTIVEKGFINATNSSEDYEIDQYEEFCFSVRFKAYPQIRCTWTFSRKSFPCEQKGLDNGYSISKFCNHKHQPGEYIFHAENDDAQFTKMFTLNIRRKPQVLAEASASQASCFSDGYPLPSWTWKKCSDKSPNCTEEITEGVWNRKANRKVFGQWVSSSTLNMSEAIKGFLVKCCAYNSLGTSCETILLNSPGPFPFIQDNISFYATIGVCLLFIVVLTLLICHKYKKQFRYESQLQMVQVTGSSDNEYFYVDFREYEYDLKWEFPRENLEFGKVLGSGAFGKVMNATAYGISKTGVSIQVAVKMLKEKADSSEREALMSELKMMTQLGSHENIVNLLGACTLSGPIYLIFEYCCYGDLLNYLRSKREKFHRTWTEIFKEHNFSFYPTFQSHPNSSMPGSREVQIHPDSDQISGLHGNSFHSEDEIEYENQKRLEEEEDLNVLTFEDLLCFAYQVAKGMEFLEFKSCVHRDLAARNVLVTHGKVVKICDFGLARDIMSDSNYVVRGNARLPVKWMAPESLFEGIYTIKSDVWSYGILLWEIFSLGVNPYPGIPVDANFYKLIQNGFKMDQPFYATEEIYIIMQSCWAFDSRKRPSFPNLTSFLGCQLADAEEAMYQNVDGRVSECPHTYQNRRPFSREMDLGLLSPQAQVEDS

[6] = biological target: Vascular endothelial growth factor receptor 1 (Homo sapiens, UniProt P17948); test: Inhibition of VEGFR1 in human A498 cells by phosphotyrosine cell-based ELISA
Sequence of Vascular endothelial growth factor receptor 1 (P17948 whole entry): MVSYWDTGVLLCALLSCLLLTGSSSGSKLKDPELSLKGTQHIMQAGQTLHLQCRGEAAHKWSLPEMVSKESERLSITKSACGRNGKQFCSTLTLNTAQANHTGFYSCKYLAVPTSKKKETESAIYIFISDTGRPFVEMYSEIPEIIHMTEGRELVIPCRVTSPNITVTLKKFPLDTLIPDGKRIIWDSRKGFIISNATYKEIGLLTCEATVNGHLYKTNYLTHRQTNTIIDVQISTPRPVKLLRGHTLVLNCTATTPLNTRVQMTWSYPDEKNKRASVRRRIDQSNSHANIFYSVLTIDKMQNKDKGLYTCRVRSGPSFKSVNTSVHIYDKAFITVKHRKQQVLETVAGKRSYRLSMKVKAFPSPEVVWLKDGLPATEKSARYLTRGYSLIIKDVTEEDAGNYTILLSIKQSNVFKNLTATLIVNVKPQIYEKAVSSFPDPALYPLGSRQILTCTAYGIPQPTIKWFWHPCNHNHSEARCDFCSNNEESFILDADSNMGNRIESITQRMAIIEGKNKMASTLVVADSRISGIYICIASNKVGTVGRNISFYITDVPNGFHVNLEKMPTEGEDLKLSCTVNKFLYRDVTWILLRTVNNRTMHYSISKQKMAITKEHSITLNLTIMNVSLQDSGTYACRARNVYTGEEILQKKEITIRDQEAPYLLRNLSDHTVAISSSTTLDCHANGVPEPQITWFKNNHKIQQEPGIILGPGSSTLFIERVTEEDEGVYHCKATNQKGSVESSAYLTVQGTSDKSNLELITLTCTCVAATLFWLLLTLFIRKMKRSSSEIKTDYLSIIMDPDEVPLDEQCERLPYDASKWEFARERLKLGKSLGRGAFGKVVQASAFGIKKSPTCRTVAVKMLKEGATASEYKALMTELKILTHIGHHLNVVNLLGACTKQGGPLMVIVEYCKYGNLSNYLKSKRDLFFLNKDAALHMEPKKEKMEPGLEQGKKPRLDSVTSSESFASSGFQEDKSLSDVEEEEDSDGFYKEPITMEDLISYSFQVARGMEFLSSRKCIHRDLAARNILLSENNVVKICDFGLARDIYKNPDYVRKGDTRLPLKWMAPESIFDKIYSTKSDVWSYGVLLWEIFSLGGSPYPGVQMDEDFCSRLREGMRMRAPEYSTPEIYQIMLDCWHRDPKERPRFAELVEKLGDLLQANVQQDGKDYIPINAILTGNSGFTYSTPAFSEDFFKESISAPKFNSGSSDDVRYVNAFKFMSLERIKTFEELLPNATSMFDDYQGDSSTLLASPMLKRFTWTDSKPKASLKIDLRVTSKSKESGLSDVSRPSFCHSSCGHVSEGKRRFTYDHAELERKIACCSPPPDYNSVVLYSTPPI

[7] = biological target: Platelet-derived growth factor receptor beta (Homo sapiens, UniProt P09619); test: Inhibition of PDGFRbeta in human SF539 cells by phosphotyrosine cell-based ELISA; parameters: species or system SF-539
Sequence of Platelet-derived growth factor receptor beta (P09619 whole entry): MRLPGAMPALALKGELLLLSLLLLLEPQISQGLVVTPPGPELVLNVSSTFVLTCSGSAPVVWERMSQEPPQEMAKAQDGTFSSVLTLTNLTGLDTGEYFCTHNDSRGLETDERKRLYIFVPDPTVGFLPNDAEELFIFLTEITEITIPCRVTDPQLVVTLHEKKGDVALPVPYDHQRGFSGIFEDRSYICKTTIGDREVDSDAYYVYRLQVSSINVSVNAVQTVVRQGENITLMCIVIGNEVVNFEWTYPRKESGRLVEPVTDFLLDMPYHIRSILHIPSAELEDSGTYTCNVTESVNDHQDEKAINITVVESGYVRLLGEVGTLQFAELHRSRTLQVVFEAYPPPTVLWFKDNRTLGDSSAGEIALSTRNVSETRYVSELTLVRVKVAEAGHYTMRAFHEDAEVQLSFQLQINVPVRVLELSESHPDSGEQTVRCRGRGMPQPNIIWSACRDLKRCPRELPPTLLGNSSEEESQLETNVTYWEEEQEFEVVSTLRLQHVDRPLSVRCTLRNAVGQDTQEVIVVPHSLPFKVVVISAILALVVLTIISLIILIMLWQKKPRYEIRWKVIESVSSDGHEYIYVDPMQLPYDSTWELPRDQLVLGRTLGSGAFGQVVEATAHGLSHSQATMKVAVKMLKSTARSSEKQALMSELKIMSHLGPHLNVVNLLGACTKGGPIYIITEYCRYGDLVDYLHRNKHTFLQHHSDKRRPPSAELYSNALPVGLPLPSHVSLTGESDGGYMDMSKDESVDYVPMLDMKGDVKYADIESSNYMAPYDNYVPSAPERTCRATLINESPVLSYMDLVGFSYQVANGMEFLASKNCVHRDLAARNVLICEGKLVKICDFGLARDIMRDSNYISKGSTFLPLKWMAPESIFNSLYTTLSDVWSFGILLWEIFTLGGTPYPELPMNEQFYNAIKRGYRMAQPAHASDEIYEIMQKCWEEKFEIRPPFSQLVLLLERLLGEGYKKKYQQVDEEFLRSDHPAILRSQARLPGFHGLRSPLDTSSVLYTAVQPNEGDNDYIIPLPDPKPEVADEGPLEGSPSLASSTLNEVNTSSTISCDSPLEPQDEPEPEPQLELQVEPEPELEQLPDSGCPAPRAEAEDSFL

Dihydrofolate reductase = biological target: T5, Dihydrofolate reductase (Homo sapiens, UniProt P00374); test: Inhibition of human DHFR
T5 sequence (P00374 whole entry): T2 sequence (whole entry)

[8] = biological target: Epidermal growth factor receptor (Homo sapiens, UniProt P00533)
[9] = biological target: Vascular endothelial growth factor receptor 2 (Homo sapiens, UniProt P35968)
Sequence of Vascular endothelial growth factor receptor 2 (P35968 whole entry): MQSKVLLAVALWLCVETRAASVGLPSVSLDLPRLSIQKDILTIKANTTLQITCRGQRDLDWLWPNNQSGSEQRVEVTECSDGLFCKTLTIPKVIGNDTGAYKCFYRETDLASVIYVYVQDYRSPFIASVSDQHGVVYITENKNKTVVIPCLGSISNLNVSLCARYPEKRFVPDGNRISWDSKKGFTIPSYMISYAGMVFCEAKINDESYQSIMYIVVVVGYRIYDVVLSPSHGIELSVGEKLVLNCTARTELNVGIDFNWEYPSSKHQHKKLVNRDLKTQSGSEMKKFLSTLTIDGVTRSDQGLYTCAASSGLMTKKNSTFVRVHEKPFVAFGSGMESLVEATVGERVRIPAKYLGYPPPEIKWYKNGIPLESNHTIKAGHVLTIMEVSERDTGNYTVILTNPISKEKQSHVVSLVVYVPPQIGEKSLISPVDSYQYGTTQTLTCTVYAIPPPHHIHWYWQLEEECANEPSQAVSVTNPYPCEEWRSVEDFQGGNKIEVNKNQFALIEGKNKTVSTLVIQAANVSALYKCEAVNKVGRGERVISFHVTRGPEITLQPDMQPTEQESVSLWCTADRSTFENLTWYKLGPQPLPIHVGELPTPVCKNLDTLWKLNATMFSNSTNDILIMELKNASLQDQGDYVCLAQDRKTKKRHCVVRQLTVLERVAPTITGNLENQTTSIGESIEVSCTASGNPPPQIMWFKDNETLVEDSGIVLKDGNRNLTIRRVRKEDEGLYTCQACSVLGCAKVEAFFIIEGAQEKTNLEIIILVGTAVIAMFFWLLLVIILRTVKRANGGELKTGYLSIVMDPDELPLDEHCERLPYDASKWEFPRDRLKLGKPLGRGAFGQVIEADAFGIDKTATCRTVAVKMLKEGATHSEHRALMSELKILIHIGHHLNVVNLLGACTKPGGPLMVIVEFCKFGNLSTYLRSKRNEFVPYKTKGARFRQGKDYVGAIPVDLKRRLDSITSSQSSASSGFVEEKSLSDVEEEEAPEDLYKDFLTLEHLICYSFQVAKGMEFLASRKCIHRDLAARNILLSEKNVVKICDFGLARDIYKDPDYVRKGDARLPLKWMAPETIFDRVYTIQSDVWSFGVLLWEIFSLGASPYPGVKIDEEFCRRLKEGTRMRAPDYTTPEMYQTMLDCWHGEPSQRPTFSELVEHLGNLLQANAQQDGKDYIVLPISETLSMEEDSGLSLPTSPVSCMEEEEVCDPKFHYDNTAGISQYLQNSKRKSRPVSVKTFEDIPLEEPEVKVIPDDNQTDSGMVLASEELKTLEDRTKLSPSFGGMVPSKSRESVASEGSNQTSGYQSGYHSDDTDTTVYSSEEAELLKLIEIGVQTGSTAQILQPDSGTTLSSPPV

Row | SMILES | Activity [1] | Activity [2] | inhibition [3] | inhibition [4] | pIC50 [5] | pIC50 [6] | pIC50 [7] | pIC50 (Dihydrofolate reductase) | pIC50 [8] | pIC50 [9]
1 | Cc1ccc(Sc2cccc3[nH]c4nc(N)nc(N)c4c23)cc1 | Active | Active | 7% | 27% | 4.40 | 3.80 | 4.39 | < 4.51 | 4.98 | 4.25
2 | Nc1nc(N)c2c(n1)[nH]c1cccc(Sc3ccccc3)c12 | Active | Active | 17% | 35% | 4.39 | 3.93 |  | < 4.48 |  | 
3 | COc1ccc(C(=O)Nc2sc3c(c2C(N)=O)CCCC3)cc1OC |  |  |  |  | 5.54 |  |  |  |  | 
